{
  "source": "ChEMBL document CHEMBL1135329",
  "about": "“DNA binding ligands with excellent antibiotic potency against drug-resistant gram-positive bacteria” (Bioorg Med Chem Lett, 2002)",
  "data": [
    {"test_system": "Candida albicans", "experiment": "Antifungal activity was determined against Candida albicans", "type": "functional", "settings": "not given", "units": {"MIC": "µg/mL"}, "values": [
      {"smiles": "Cn1cc(NC(=O)c2cc(NC(=O)c3cc(NC(=O)c4nsc(N5CCCCC5)c4Cl)cn3C)cn2C)cc1C(=O)NCCN1CCOCC1", "MIC": "> 32"},
      {"smiles": "CN(C)CCCNC(=O)c1cc(NC(=O)c2cc(NC(=O)c3cc(NC(=O)c4nsc(NCCCCN)c4Cl)cn3C)cn2C)cn1C", "MIC": 8},
      {"smiles": "Cn1cc(NC(=O)c2cc(NC(=O)c3cc(NC(=O)c4nsc(NCCc5ccccn5)c4Cl)cn3C)cn2C)cc1C(=O)NCCN1CCOCC1", "MIC": "> 32"},
      {"smiles": "Cn1cc(NC(=O)c2cc(NC(=O)c3cc(NC(=O)c4nsc(NCCN5CCOCC5)c4Cl)cn3C)cn2C)cc1C(=O)NCCc1ccncc1", "MIC": "> 32"},
      {"smiles": "Cn1cc(NC(=O)c2cc(NC(=O)c3cc(NC(=O)c4nsc(NCCN5CCOCC5)c4Cl)cn3C)cn2C)cc1C(=O)NCCN1CCOCC1", "MIC": "> 32"}
    ]},
    {"test_system": "Escherichia coli", "experiment": "Binding to the sequence 5'-ACAATTAA-3', a site proximal to the […] RNA polymerase subunit binding site within the Escherichia coli Trc promoter.", "type": "functional", "settings": "read-out: Kd app", "units": {"Kd": "nM"}, "values": [
      {"smiles": "Cn1cc(NC(=O)c2cc(NC(=O)c3cc(NC(=O)c4nsc(N5CCCCC5)c4Cl)cn3C)cn2C)cc1C(=O)NCCN1CCOCC1", "Kd": 4},
      {"smiles": "CN(C)CCCNC(=O)c1cc(NC(=O)c2cc(NC(=O)c3cc(NC(=O)c4nsc(NCCCCN)c4Cl)cn3C)cn2C)cn1C", "Kd": 1.04},
      {"smiles": "Cn1cc(NC(=O)c2cc(NC(=O)c3cc(NC(=O)c4nsc(NCCc5ccccn5)c4Cl)cn3C)cn2C)cc1C(=O)NCCN1CCOCC1", "Kd": 0.83},
      {"smiles": "Cn1cc(NC(=O)c2cc(NC(=O)c3cc(NC(=O)c4nsc(NCCN5CCOCC5)c4Cl)cn3C)cn2C)cc1C(=O)NCCc1ccncc1", "Kd": 4.35},
      {"smiles": "Cn1cc(NC(=O)c2cc(NC(=O)c3cc(NC(=O)c4nsc(NCCN5CCOCC5)c4Cl)cn3C)cn2C)cc1C(=O)NCCN1CCOCC1", "Kd": 9.09}
    ]},
    {"test_system": "Enterococcus faecalis", "experiment": "Antimicrobial activity was determined against vancomycin-resistant Enterococcus faecalis (VREF 51559)", "type": "functional", "settings": "not given", "units": {"MIC": "µg/mL"}, "values": [
      {"smiles": "Cn1cc(NC(=O)c2cc(NC(=O)c3cc(NC(=O)c4nsc(N5CCCCC5)c4Cl)cn3C)cn2C)cc1C(=O)NCCN1CCOCC1", "MIC": 1},
      {"smiles": "CN(C)CCCNC(=O)c1cc(NC(=O)c2cc(NC(=O)c3cc(NC(=O)c4nsc(NCCCCN)c4Cl)cn3C)cn2C)cn1C", "MIC": 1},
      {"smiles": "Cn1cc(NC(=O)c2cc(NC(=O)c3cc(NC(=O)c4nsc(NCCc5ccccn5)c4Cl)cn3C)cn2C)cc1C(=O)NCCN1CCOCC1", "MIC": 4},
      {"smiles": "Cn1cc(NC(=O)c2cc(NC(=O)c3cc(NC(=O)c4nsc(NCCN5CCOCC5)c4Cl)cn3C)cn2C)cc1C(=O)NCCc1ccncc1", "MIC": 0.25},
      {"smiles": "Cn1cc(NC(=O)c2cc(NC(=O)c3cc(NC(=O)c4nsc(NCCN5CCOCC5)c4Cl)cn3C)cn2C)cc1C(=O)NCCN1CCOCC1", "MIC": 2}
    ]},
    {"test_system": "Enterococcus faecalis", "experiment": "Antimicrobial activity was determined against vancomycin-susceptible Enterococcus faecalis (VSEF 29212)", "type": "functional", "settings": "not given", "units": {"MIC": "µg/mL"}, "values": [
      {"smiles": "Cn1cc(NC(=O)c2cc(NC(=O)c3cc(NC(=O)c4nsc(N5CCCCC5)c4Cl)cn3C)cn2C)cc1C(=O)NCCN1CCOCC1", "MIC": 1},
      {"smiles": "CN(C)CCCNC(=O)c1cc(NC(=O)c2cc(NC(=O)c3cc(NC(=O)c4nsc(NCCCCN)c4Cl)cn3C)cn2C)cn1C", "MIC": 1},
      {"smiles": "Cn1cc(NC(=O)c2cc(NC(=O)c3cc(NC(=O)c4nsc(NCCc5ccccn5)c4Cl)cn3C)cn2C)cc1C(=O)NCCN1CCOCC1", "MIC": 0.5},
      {"smiles": "Cn1cc(NC(=O)c2cc(NC(=O)c3cc(NC(=O)c4nsc(NCCN5CCOCC5)c4Cl)cn3C)cn2C)cc1C(=O)NCCc1ccncc1", "MIC": 0.062},
      {"smiles": "Cn1cc(NC(=O)c2cc(NC(=O)c3cc(NC(=O)c4nsc(NCCN5CCOCC5)c4Cl)cn3C)cn2C)cc1C(=O)NCCN1CCOCC1", "MIC": 0.25}
    ]},
    {"test_system": "Staphylococcus aureus", "experiment": "Antimicrobial activity was determined against methicillin-resistant Staphylococcus aureus (MRSA 27660)", "type": "functional", "settings": "not given", "units": {"MIC": "µg/mL"}, "values": [
      {"smiles": "Cn1cc(NC(=O)c2cc(NC(=O)c3cc(NC(=O)c4nsc(N5CCCCC5)c4Cl)cn3C)cn2C)cc1C(=O)NCCN1CCOCC1", "MIC": 1},
      {"smiles": "CN(C)CCCNC(=O)c1cc(NC(=O)c2cc(NC(=O)c3cc(NC(=O)c4nsc(NCCCCN)c4Cl)cn3C)cn2C)cn1C", "MIC": 2},
      {"smiles": "Cn1cc(NC(=O)c2cc(NC(=O)c3cc(NC(=O)c4nsc(NCCc5ccccn5)c4Cl)cn3C)cn2C)cc1C(=O)NCCN1CCOCC1", "MIC": 2},
      {"smiles": "Cn1cc(NC(=O)c2cc(NC(=O)c3cc(NC(=O)c4nsc(NCCN5CCOCC5)c4Cl)cn3C)cn2C)cc1C(=O)NCCc1ccncc1", "MIC": 0.5},
      {"smiles": "Cn1cc(NC(=O)c2cc(NC(=O)c3cc(NC(=O)c4nsc(NCCN5CCOCC5)c4Cl)cn3C)cn2C)cc1C(=O)NCCN1CCOCC1", "MIC": 4}
    ]},
    {"test_system": "Staphylococcus aureus", "experiment": "Antimicrobial activity was determined against methicillin-susceptible S. aureus(MSSA 29213)", "type": "functional", "settings": "not given", "units": {"MIC": "µg/mL"}, "values": [
      {"smiles": "Cn1cc(NC(=O)c2cc(NC(=O)c3cc(NC(=O)c4nsc(N5CCCCC5)c4Cl)cn3C)cn2C)cc1C(=O)NCCN1CCOCC1", "MIC": 2},
      {"smiles": "CN(C)CCCNC(=O)c1cc(NC(=O)c2cc(NC(=O)c3cc(NC(=O)c4nsc(NCCCCN)c4Cl)cn3C)cn2C)cn1C", "MIC": 2},
      {"smiles": "Cn1cc(NC(=O)c2cc(NC(=O)c3cc(NC(=O)c4nsc(NCCc5ccccn5)c4Cl)cn3C)cn2C)cc1C(=O)NCCN1CCOCC1", "MIC": 1},
      {"smiles": "Cn1cc(NC(=O)c2cc(NC(=O)c3cc(NC(=O)c4nsc(NCCN5CCOCC5)c4Cl)cn3C)cn2C)cc1C(=O)NCCc1ccncc1", "MIC": 0.125},
      {"smiles": "Cn1cc(NC(=O)c2cc(NC(=O)c3cc(NC(=O)c4nsc(NCCN5CCOCC5)c4Cl)cn3C)cn2C)cc1C(=O)NCCN1CCOCC1", "MIC": 1}
    ]},
    {"test_system": "Streptococcus pneumoniae", "experiment": "Antimicrobial activity was determined against penicillin-resistant Streptococcus pneumoniae (PRSP 51422)", "type": "functional", "settings": "not given", "units": {"MIC": "µg/mL"}, "values": [
      {"smiles": "Cn1cc(NC(=O)c2cc(NC(=O)c3cc(NC(=O)c4nsc(N5CCCCC5)c4Cl)cn3C)cn2C)cc1C(=O)NCCN1CCOCC1", "MIC": 0.062},
      {"smiles": "CN(C)CCCNC(=O)c1cc(NC(=O)c2cc(NC(=O)c3cc(NC(=O)c4nsc(NCCCCN)c4Cl)cn3C)cn2C)cn1C", "MIC": 1},
      {"smiles": "Cn1cc(NC(=O)c2cc(NC(=O)c3cc(NC(=O)c4nsc(NCCc5ccccn5)c4Cl)cn3C)cn2C)cc1C(=O)NCCN1CCOCC1", "MIC": 0.5},
      {"smiles": "Cn1cc(NC(=O)c2cc(NC(=O)c3cc(NC(=O)c4nsc(NCCN5CCOCC5)c4Cl)cn3C)cn2C)cc1C(=O)NCCc1ccncc1", "MIC": 0.5},
      {"smiles": "Cn1cc(NC(=O)c2cc(NC(=O)c3cc(NC(=O)c4nsc(NCCN5CCOCC5)c4Cl)cn3C)cn2C)cc1C(=O)NCCN1CCOCC1", "MIC": 0.25}
    ]},
    {"test_system": "Streptococcus pneumoniae", "experiment": "Antimicrobial activity was determined against penicillin-susceptible Streptococcus pneumoniae (PSSP 49619)", "type": "functional", "settings": "not given", "units": {"MIC": "µg/mL"}, "values": [
      {"smiles": "Cn1cc(NC(=O)c2cc(NC(=O)c3cc(NC(=O)c4nsc(N5CCCCC5)c4Cl)cn3C)cn2C)cc1C(=O)NCCN1CCOCC1", "MIC": 0.125},
      {"smiles": "CN(C)CCCNC(=O)c1cc(NC(=O)c2cc(NC(=O)c3cc(NC(=O)c4nsc(NCCCCN)c4Cl)cn3C)cn2C)cn1C", "MIC": 0.5},
      {"smiles": "Cn1cc(NC(=O)c2cc(NC(=O)c3cc(NC(=O)c4nsc(NCCc5ccccn5)c4Cl)cn3C)cn2C)cc1C(=O)NCCN1CCOCC1", "MIC": 0.125},
      {"smiles": "Cn1cc(NC(=O)c2cc(NC(=O)c3cc(NC(=O)c4nsc(NCCN5CCOCC5)c4Cl)cn3C)cn2C)cc1C(=O)NCCc1ccncc1", "MIC": 0.062},
      {"smiles": "Cn1cc(NC(=O)c2cc(NC(=O)c3cc(NC(=O)c4nsc(NCCN5CCOCC5)c4Cl)cn3C)cn2C)cc1C(=O)NCCN1CCOCC1", "MIC": 0.062}
    ]}
  ]
}
